This note sets out measurements from ChEMBL document CHEMBL1152560, “Substituted 2-arylbenzothiazoles as kinase inhibitors: hit-to-lead optimization” (Bioorg Med Chem, 2009).

Experiment [1] concerns the target T1, Ephrin type-A receptor 8 (Homo sapiens) (UniProt P29322).
T1 sequence (whole entry): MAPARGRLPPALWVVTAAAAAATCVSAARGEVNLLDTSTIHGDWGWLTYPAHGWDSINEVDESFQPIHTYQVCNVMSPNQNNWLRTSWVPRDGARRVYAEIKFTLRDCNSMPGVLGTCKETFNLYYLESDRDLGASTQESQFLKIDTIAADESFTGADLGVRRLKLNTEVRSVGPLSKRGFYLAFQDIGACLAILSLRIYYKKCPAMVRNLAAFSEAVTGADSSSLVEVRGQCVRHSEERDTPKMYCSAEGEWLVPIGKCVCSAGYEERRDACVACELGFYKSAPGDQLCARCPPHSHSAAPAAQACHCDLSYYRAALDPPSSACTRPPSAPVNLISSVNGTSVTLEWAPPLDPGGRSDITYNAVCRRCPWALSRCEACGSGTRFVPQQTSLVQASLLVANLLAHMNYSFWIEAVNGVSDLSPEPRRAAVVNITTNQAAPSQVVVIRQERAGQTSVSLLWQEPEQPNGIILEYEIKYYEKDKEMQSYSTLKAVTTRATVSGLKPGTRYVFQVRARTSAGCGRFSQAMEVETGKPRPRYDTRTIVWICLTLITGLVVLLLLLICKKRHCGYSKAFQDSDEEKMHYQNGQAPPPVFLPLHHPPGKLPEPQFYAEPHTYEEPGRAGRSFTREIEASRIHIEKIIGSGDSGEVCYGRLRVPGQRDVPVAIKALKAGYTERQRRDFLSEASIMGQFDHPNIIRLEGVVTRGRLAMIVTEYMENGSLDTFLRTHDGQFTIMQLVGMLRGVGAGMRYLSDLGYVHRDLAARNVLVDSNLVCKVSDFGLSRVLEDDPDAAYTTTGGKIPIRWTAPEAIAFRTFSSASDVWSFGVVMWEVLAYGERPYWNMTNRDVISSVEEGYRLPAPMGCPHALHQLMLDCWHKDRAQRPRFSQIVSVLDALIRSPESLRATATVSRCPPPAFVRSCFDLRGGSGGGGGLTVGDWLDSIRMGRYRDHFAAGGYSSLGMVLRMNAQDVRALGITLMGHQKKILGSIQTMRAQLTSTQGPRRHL
In words: Residual activity of EPHA8 at 1 uM by microplate scintillation counting.

Experiment [2] has as its target T2, Serine/threonine-protein kinase DCLK2 (Homo sapiens) (UniProt Q8N568).
T2 sequence (whole entry): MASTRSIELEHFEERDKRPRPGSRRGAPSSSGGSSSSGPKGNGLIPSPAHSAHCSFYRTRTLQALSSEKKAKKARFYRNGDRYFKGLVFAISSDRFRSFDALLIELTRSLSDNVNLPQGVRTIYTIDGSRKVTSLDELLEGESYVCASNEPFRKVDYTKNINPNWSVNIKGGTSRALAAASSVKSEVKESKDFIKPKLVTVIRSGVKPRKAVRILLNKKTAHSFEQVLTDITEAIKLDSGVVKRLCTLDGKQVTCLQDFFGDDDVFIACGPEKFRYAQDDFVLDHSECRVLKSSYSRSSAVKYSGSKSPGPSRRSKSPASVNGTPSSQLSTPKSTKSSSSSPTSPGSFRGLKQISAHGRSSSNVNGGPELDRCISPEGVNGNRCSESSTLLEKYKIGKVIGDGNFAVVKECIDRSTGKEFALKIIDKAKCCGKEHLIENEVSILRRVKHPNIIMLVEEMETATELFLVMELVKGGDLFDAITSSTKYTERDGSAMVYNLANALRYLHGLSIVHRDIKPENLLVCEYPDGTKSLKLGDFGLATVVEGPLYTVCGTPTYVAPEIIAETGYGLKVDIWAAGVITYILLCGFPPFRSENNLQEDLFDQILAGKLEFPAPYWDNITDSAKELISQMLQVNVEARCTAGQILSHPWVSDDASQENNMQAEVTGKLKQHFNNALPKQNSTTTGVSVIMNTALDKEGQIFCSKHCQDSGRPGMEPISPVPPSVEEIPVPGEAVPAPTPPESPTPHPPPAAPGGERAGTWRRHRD
In words: Residual activity of DCAMKL2 at 0.1 uM by microplate scintillation counting.

For experiment [3], the target named is Serine/threonine-protein kinase pim-1 (Homo sapiens) (UniProt P11309). Kind of experiment: Residual activity of PIM1 at 1 uM by microplate scintillation counting.
Sequence of Serine/threonine-protein kinase pim-1 (Homo sapiens) (P11309 whole entry, looked up): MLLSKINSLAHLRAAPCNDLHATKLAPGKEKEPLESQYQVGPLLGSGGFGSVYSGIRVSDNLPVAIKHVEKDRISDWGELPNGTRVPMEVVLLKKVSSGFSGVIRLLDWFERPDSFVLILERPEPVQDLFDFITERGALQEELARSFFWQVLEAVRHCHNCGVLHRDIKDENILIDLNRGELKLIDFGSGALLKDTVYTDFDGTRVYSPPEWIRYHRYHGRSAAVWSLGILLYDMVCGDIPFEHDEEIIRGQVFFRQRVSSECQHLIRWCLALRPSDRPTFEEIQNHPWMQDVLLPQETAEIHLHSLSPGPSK
The test system of experiment [4] is T3, Dual specificity mitogen-activated protein kinase kinase 6 (Homo sapiens), P52564 [S207D,T211D].
T3 sequence (whole entry): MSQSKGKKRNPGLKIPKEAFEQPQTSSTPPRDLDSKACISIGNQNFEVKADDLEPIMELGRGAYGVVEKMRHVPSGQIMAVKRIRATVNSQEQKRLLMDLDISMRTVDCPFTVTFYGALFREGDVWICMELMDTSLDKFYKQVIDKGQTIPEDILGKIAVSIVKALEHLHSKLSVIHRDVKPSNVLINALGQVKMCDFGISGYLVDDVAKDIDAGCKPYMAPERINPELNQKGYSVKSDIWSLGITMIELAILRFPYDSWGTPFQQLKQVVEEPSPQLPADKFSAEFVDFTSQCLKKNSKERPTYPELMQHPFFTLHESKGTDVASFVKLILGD
Kind of experiment: Residual activity of MKK6 S207D/T211D mutant at 1 uM by microplate scintillation counting.

For experiment [5], the target named is T4, Serine/threonine-protein kinase Nek11 (Homo sapiens) (UniProt Q8NG66).
T4 sequence (whole entry): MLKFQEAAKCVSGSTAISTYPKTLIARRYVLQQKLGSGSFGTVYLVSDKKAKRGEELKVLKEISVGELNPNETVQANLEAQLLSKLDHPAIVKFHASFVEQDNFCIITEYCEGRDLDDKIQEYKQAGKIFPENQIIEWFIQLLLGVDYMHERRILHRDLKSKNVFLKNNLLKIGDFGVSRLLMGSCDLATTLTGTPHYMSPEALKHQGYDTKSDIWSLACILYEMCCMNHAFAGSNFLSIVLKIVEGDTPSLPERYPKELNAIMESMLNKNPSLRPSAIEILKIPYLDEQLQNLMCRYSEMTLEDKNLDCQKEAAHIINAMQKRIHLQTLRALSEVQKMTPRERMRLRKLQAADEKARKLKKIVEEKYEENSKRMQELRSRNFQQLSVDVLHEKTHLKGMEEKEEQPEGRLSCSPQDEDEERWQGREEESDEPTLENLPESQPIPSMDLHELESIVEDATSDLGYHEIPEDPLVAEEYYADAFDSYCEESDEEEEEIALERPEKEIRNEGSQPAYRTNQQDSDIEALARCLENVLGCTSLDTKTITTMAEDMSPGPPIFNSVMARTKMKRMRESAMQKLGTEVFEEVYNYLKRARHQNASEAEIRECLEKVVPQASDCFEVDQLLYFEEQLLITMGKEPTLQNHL
Kind of experiment: Residual activity of NEK11 at 0.1 uM by microplate scintillation counting.

Experiment [6] relates to Epidermal growth factor receptor (Homo sapiens), P00533 [L858R]. In words: Residual activity of EGFR L858R mutant at 10 uM by microplate scintillation counting.
The target in the next experiment is Aurora kinase B (Homo sapiens, UniProt Q96GD4). In words: Residual activity of Aurora-B at 10 uM by microplate scintillation counting.
Sequence of Aurora kinase B (Q96GD4 whole entry): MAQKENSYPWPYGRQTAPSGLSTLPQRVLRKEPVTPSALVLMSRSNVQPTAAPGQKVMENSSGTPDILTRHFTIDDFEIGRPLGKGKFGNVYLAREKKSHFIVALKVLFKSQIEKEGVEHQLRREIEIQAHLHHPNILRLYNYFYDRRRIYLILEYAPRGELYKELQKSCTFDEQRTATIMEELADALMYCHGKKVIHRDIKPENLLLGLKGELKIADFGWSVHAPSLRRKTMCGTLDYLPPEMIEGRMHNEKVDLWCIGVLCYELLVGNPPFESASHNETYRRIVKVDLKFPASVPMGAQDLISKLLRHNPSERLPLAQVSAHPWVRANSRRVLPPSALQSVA

For the molecule `COc1cc2c(Oc3ccc(-c4nc5ccccc5s4)cc3F)ncnc2cc1OCCCN1CCN(C)CC1`, the residual activity is 149% in experiment [1]; 80% in experiment [2]; 102% in experiment [3]; 103% in experiment [4]; 94% in experiment [5]; 24% in experiment [6]. Further, the residual activity at Aurora kinase B worked out at 3%.

`COc1cc2c(Oc3ccc(-c4nc5ccccc5s4)cc3)ncnc2cc1OCCCN1CCN(C)CC1`: the residual activity in experiment [1] stood at 123%; in experiment [2], 66%; in experiment [3], 109%; in experiment [4], 84%; in experiment [5] it was 95%; in experiment [6] it was 22%. Also, at Aurora kinase B, the residual activity was 5%.

Turning to `COc1cc2c(Oc3ccc(-c4nc5ccccc5s4)cc3)ncnc2cc1OCCCN1CCCC1`, the residual activity was determined as 147% in experiment [1]; 87% in experiment [2]; 104% in experiment [3]; 100% in experiment [4]; 103% in experiment [5]; 46% in experiment [6]. Besides, at Aurora kinase B, the residual activity was 3%.
